Experimental data published in patent US20230265151A1, “GIP/GLP1 CO-AGONIST COMPOUNDS” (priority 2020, published 2023).
Like-named read-outs stand apart in the source and are kept apart here.

Key:
Assay type in all cases: cell-based
[1] = target: T1, hGIPR (Homo sapiens, UniProt P48546); assay: Functional cAMP formation (HTRF) in HEK-293 clonal cells expressing hGIPR, 0.1% bovine casein, without or with 1.0% human serum albumin
T1 construct: expressed in transfected cells
T1 sequence (P48546 22-466): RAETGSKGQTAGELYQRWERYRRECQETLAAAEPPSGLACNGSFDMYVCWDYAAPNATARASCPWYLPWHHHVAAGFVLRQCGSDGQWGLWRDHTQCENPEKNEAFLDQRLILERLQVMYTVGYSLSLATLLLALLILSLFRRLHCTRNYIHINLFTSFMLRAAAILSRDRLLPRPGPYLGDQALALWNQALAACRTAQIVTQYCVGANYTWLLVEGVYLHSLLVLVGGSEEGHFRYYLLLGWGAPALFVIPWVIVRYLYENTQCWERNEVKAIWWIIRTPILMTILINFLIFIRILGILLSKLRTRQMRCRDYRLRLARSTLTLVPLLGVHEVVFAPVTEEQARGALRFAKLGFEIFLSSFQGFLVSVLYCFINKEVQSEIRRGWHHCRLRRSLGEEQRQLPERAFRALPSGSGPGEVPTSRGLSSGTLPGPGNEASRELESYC
Procedure: (§1) After a 30-min incubation at 37° C., the resulting increase in intracellular cAMP is quantitatively determined using a CisBio cAMP Dynamic 2 HTRF Assay Kit (62AM4PEJ). Briefly, cAMP levels within the cell are detected by adding the cAMP-d2 conjugate in cell lysis buffer (10 µL) followed by the antibody anti-cAMP-Eu^3+-Cryptate, also in cell lysis buffer (10 µL). The resulting competitive assay is incubated for at least 60 min at room temperature, and then is detected using a PerkinElmer Envision® instrument with excitation at 320 nm and emission at 665 nm and 620 nm. Envision units (emission at 665 nm/620 nm* 10,000) are inversely proportional to the amount of cAMP present and are converted to nM cAMP per well us-ing a cAMP standard curve. […] A relative EC50 value and percent top (Emax) are derived by non-linear regression analysis using the percent maximal response vs. the concentration of peptide added, fitted to a four-parameter logistic equation.

[2] = target: T2, hGCGR (Homo sapiens, UniProt P47871); assay: Functional cAMP formation (HTRF) in HEK-293 clonal cells expressing hGCGR, 0.1% bovine casein, without or with 1.0% human serum albumin; conditions: geometric mean, read-out: hGCGR EC50, nM (SEM, n)
T2 construct: expressed in transfected cells
T2 sequence (P47871 26-477): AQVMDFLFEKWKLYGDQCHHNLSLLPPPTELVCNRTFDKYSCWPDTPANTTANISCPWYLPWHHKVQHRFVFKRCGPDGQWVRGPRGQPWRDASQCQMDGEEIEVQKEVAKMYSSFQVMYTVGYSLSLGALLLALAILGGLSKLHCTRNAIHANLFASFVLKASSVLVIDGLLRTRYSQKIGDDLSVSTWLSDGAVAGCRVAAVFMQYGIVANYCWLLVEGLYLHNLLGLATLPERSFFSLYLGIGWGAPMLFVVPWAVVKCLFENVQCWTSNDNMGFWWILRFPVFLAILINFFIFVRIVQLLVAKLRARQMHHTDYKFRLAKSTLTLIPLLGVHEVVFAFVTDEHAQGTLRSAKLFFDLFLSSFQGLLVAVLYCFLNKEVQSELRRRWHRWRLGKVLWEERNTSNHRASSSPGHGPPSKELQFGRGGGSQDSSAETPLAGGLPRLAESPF
Procedure: as §1

[3] = target: hGLP-1R (Homo sapiens, UniProt P43220); assay: Functional cAMP formation (HTRF) in HEK-293 clonal cells expressing hGLP-1R, 0.1% bovine casein, without or with 1.0% human serum albumin; parameters: expressed in transfected cells; conditions: percent of maximal response to GLP-1(7-36)NH2
hGLP-1R, sequence (P43220 24-463): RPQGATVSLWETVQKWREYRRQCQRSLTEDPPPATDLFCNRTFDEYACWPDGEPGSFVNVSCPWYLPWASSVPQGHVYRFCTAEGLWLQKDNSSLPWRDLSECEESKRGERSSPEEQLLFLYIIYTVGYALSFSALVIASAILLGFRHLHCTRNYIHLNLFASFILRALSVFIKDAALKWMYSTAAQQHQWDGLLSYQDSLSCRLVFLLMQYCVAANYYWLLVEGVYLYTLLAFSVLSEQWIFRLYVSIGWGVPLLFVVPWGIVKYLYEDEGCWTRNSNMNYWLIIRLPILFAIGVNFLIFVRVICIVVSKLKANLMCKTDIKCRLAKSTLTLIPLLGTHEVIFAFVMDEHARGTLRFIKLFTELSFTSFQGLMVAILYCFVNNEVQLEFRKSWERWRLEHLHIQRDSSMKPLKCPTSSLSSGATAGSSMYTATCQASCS
Procedure: as §1

[4] = HEK293, 0.1% bovine casein and 1.0% human serum albumin, 37° C., percent of maximal response to GIP(1-42)NH2, read-out: hGIPR Emax, % ± SEM
[5] = cAMP, incubated at 37° C., 0.1% bovine casein (no human serum albumin)

## CC[C@H](C)[C@H](NC(=O)[C@H](CC(C)C)NC(=O)[C@](C)(Cc1ccc(O)cc1)NC(=O)[C@@H](CCC(=O)O)NC(=O)[C@@H](NC(=O)[C@H](Cc1ccccc1)NC(=O)[C@H](CCC(=O)O)NC(=O)C(C)(C)NC(=O)[C@H](CCC(N)=O)NC(=O)[C@H](C)NC(=O)[C@H](CCCCNC(=O)[C@@H](N)CCCCNC(=O)CC[C@H](NC(=O)CC[C@H](NC(=O)CCCCCCCCCCCCC(=O)O)C(=O)O)C(=O)O)NC(=O)[C@H](CCCN)NC(=O)[C@H](CC(=O)O)NC(=O)[C@H](CC(C)C)NC(=O)[C@](C)(CC(C)C)NC(=O)[C@@H](NC(=O)[C@H](CO)NC(=O)[C@H](Cc1ccncc1)NC(=O)[C@H](CC(=O)O)NC(=O)[C@H](CO)NC(=O)[C@@H](NC(=O)[C@](C)(Cc1ccccc1F)NC(=O)[C@@H](NC(=O)CNC(=O)[C@H](CCC(=O)O)NC(=O)C(C)(C)NC(=O)[C@@H](N)Cc1ccc(O)cc1)[C@@H](C)O)[C@@H](C)O)[C@@H](C)CC)[C@@H](C)CC)C(=O)N[C@@H](CCC(=O)O)C(=O)NCC(=O)NCC(=O)N[C@@H](CCCCNC(=O)[C@@H](N)CCCCNC(=O)CC[C@H](NC(=O)CC[C@H](NC(=O)CCCCCCCCCCCCC(=O)O)C(=O)O)C(=O)O)C(=O)N[C@@H](CO)C(=O)N[C@@H](CO)C(=O)NCC(=O)N[C@@H](C)C(=O)N1CCC[C@H]1C(=O)N1CCC[C@H]1C(=O)N1CCC[C@H]1C(=O)N[C@@H](CO)C(N)=O [Example 39]
[1]; [4]
  Emax: 86.8 ± 3.27%
[1]; HEK293, percent of maximal response to GIP(1-42)NH2, 37° C., 0.1% bovine casein, arithmetic mean, read-out: hGIPR Emax, % ± SEM
  Emax: 96.5 ± 1.44%

## CC[C@H](C)[C@H](NC(=O)[C@H](CC(C)C)NC(=O)[C@](C)(Cc1ccc(O)cc1)NC(=O)[C@@H](CCC(=O)O)NC(=O)[C@@H](NC(=O)[C@](C)(Cc1ccccc1)NC(=O)[C@H](CCC(=O)O)NC(=O)C(C)(C)NC(=O)[C@H](CCC(N)=O)NC(=O)[C@H](C)NC(=O)[C@H](CCCCNC(=O)COCCOCCNC(=O)COCCOCCNC(=O)CC[C@H](NC(=O)CCCCCCCCCCCCC(=O)O)C(=O)O)NC(=O)[C@H](CCCN)NC(=O)[C@H](CC(=O)O)NC(=O)[C@H](CC(C)C)NC(=O)[C@](C)(CC(C)C)NC(=O)[C@@H](NC(=O)[C@H](CO)NC(=O)[C@@H](NC(=O)[C@H](CC(=O)O)NC(=O)[C@H](CO)NC(=O)[C@@H](NC(=O)[C@](C)(Cc1ccccc1F)NC(=O)[C@@H](NC(=O)CNC(=O)[C@H](CCC(=O)O)NC(=O)C(C)(C)NC(=O)[C@@H](N)Cc1ccc(O)cc1)[C@@H](C)O)[C@@H](C)O)C(C)C)[C@@H](C)CC)[C@@H](C)CC)C(=O)N[C@@H](CCC(=O)O)C(=O)NCC(=O)NCC(=O)N[C@@H](CCCCNC(=O)COCCOCCNC(=O)COCCOCCNC(=O)CC[C@H](NC(=O)CCCCCCCCCCCCC(=O)O)C(=O)O)C(=O)N[C@@H](CO)C(=O)N[C@@H](CO)C(=O)NCC(=O)N[C@@H](C)C(=O)N1CCC[C@H]1C(=O)N1CCC[C@H]1C(=O)N1CCC[C@H]1C(=O)N[C@@H](CO)C(N)=O [Example 92]
[2]; 0.1% bovine casein and 1.0% human serum albumin, 37° C.
  EC50: > 9950 nM
[2]; [5]
  EC50: > 9950 nM

## CC[C@H](C)[C@H](NC(=O)[C@H](CC(C)C)NC(=O)[C@](C)(Cc1ccc(O)cc1)NC(=O)[C@@H](CCC(=O)O)NC(=O)[C@@H](NC(=O)[C@H](Cc1ccccc1)NC(=O)[C@H](CCC(=O)O)NC(=O)C(C)(C)NC(=O)[C@H](CCC(N)=O)NC(=O)[C@H](C)NC(=O)[C@H](CCCCNC(=O)COCCOCCNC(=O)COCCOCCNC(=O)CC[C@H](NC(=O)CCCCCCCCCCCCC(=O)O)C(=O)O)NC(=O)[C@H](CCCN)NC(=O)[C@H](CC(=O)O)NC(=O)[C@H](CC(C)C)NC(=O)[C@](C)(CC(C)C)NC(=O)[C@@H](NC(=O)[C@H](CO)NC(=O)[C@H](Cc1ccc(C(=O)O)cc1)NC(=O)[C@H](CC(=O)O)NC(=O)[C@H](CO)NC(=O)[C@@H](NC(=O)[C@](C)(Cc1ccccc1F)NC(=O)[C@@H](NC(=O)CNC(=O)[C@H](CCC(=O)O)NC(=O)C(C)(C)NC(=O)[C@@H](N)Cc1ccc(O)cc1)[C@@H](C)O)[C@@H](C)O)[C@@H](C)CC)[C@@H](C)CC)C(=O)N[C@@H](CCC(=O)O)C(=O)NCC(=O)NCC(=O)N[C@@H](CCCCNC(=O)COCCOCCNC(=O)COCCOCCNC(=O)CC[C@H](NC(=O)CCCCCCCCCCCCC(=O)O)C(=O)O)C(=O)N[C@@H](CO)C(=O)N[C@@H](CO)C(=O)NCC(=O)N[C@@H](C)C(=O)N1CCC[C@H]1C(=O)N1CCC[C@H]1C(=O)N1CCC[C@H]1C(=O)N[C@@H](CO)C(N)=O [Example 96]
[2]; [5]
  EC50: > 9950 nM

## CC[C@H](C)[C@H](NC(=O)[C@H](CC(C)C)NC(=O)[C@](C)(Cc1ccc(O)cc1)NC(=O)[C@@H](CCC(=O)O)NC(=O)[C@@H](NC(=O)[C@H](Cc1ccccc1)NC(=O)[C@H](CCC(=O)O)NC(=O)C(C)(C)NC(=O)[C@H](CCC(N)=O)NC(=O)[C@H](C)NC(=O)[C@H](CCCCNC(=O)COCCOCCNC(=O)COCCOCCNC(=O)CCCCCCCCCCCCC(=O)O)NC(=O)[C@H](CCCN)NC(=O)[C@H](CC(=O)O)NC(=O)[C@H](CC(C)C)NC(=O)[C@](C)(CC(C)C)NC(=O)[C@@H](NC(=O)[C@H](CO)NC(=O)[C@H](Cc1ccc2ccccc2c1)NC(=O)[C@H](CC(=O)O)NC(=O)[C@H](CO)NC(=O)[C@@H](NC(=O)[C@](C)(Cc1ccccc1F)NC(=O)[C@@H](NC(=O)CNC(=O)[C@H](CCC(=O)O)NC(=O)C(C)(C)NC(=O)[C@@H](N)Cc1ccc(O)cc1)[C@@H](C)O)[C@@H](C)O)[C@@H](C)CC)[C@@H](C)CC)C(=O)N[C@@H](CCC(=O)O)C(=O)NCC(=O)NCC(=O)N1CCC[C@H]1C(=O)N[C@@H](CO)C(=O)N[C@@H](CO)C(=O)NCC(=O)N[C@@H](C)C(=O)N1CCC[C@H]1C(=O)N1CCC[C@H]1C(=O)N1CCC[C@H]1C(=O)N[C@@H](CO)C(=O)N[C@@H](CCCCNC(=O)COCCOCCNC(=O)COCCOCCNC(=O)CCCCCCCCCCCCC(=O)O)C(N)=O [Example 257]
[1]; [4]
  Emax: 72.2%
[1]; HEK293, cAMP, 37° C., 0.1% bovine casein, percent of maximal response to GIP(1-42)NH2, arithmetic mean, read-out: hGIPR Emax, % ± SEM
  Emax: 90.3%
[3]; HEK293, cAMP, 37° C., 0.1% bovine casein, arithmetic mean, read-out: hGLP-1R Emax, % ± SEM
  Emax: 82%

## CC[C@H](C)[C@H](NC(=O)[C@H](CC(C)C)NC(=O)[C@](C)(Cc1ccc(O)cc1)NC(=O)[C@@H](CCC(=O)O)NC(=O)[C@@H](NC(=O)[C@H](Cc1ccccc1)NC(=O)[C@H](CCCN)NC(=O)C(C)(C)NC(=O)[C@H](CCC(N)=O)NC(=O)[C@H](C)NC(=O)[C@H](CCCCNC(=O)COCCOCCNC(=O)COCCOCCNC(=O)CC[C@H](NC(=O)CCCCCCCCCOc1ccc(C(=O)O)cc1)C(=O)O)NC(=O)[C@H](CCCN)NC(=O)[C@H](CC(=O)O)NC(=O)[C@H](CC(C)C)NC(=O)[C@](C)(CC(C)C)NC(=O)[C@@H](NC(=O)C(C)(C)NC(=O)[C@H](Cc1ccncc1)NC(=O)[C@H](CC(=O)O)NC(=O)[C@H](CO)NC(=O)[C@@H](NC(=O)[C@](C)(Cc1ccccc1F)NC(=O)[C@@H](NC(=O)CNC(=O)[C@H](CCC(=O)O)NC(=O)C(C)(C)NC(=O)[C@@H](N)Cc1ccc(O)cc1)[C@@H](C)O)[C@@H](C)O)[C@@H](C)CC)[C@@H](C)CC)C(=O)N[C@@H](CCCCNC(=O)COCCOCCNC(=O)COCCOCCNC(=O)CC[C@H](NC(=O)CCCCCCCCCOc1ccc(C(=O)O)cc1)C(=O)O)C(=O)NCC(=O)NCC(=O)N1CCC[C@H]1C(=O)N[C@@H](CO)C(=O)N[C@@H](CO)C(=O)NCC(=O)N[C@@H](C)C(=O)N1CCC[C@H]1C(=O)N1CCC[C@H]1C(=O)N1CCC[C@H]1C(=O)N[C@@H](CO)C(N)=O [Example 351]
[1]; HEK293, read-out: hGIPR Emax, % ± SEM, cAMP, 37° C., 0.1% bovine casein and 1.0% human serum albumin, percent of maximal response to GIP(1-42)NH2
  Emax: 67.9%
[3]; HEK293, read-out: hGLP-1R Emax, % ± SEM, cAMP, 37° C., 0.1% bovine casein and 1.0% human serum albumin
  Emax: 91%
[3]; HEK293, read-out: hGLP-1R Emax, % ± SEM, cAMP, 37° C., 0.1% bovine casein, arithmetic mean
  Emax: 100%
